Laboratory results: patent US7320992B2, “Substituted 2,3-dihydro-1h-isoindol-1-one derivatives and methods of use” (Amgen Inc., priority 2003, dated 2008)

What follows are compounds tested on VEGF-stimulated HUVEC proliferation (Human Umbilical Vein Endothelial cells) (assay: HUVEC Proliferation Assay). Conditions: 72 h incubation, CyQuant readout, read-out: inhibited VEGF-stimulated HUVEC proliferation at a level (IC50).
Format: cell-based
Experimental: Human Umbilical Vein Endothelial cells are purchased from Clonetics, Inc., as cryopreserved cells harvested from a pool of donors. These cells, at passage 1, are thawed and expanded in EBM-2 complete medium, until passage 2 or 3. The cells are trypsinized, washed in DMEM+10% FBS+antibiotics, and spun at 1000 rpm for 10 min. Prior to centrifugation of the cells, a small amount is collected for a cell count. After centrifugation, the medium is discarded, and the cells are resuspended in the appropriate volume of DMEM+10% FBS+antibiotics to achieve a concentration of 3×10^5 cells/mL. Another cell count is performed to confirm the cell concentration. The cells are diluted to 3×10^4 cells/mL in DMEM+10% FBS+antibiotics, and 100 μL of cells are added to a 96-well plate. The cells are incubated at 37° C. for 22 h.
Prior to the completion of the incubation period, compound dilutions are prepared. Five-point, five-fold serial dilutions are prepared in DMSO, at concentrations 400-fold greater than the final concentrations desired. 2.5 μL of each compound dilution are diluted further in a total of 1 mL DMEM+10% FBS+antibiotics (400× dilution). Medium containing 0.25% DMSO is also prepared for the 0 μM compound sample. At the 22 h timepoint, the medium is removed from the cells, and 100 μL of each compound dilution is added. The cells are incubated at 37° C. for 2-3 h.
During the compound pre-incubation period, the growth factors are diluted to the appropriate concentrations. Solutions of DMEM+10% FBS+antibiotics, containing either VEGF or bFGF at the following concentrations: 50, 10, 2, 0.4, 0.08, and 0 ng/mL are prepared. For the compound-treated cells, solutions of VEGF at 550 ng/mL or bFGF at 220 ng/mL for 50 ng/mL or 20 ng/mL final concentrations, respectively, are prepared since 10 μL of each will be added to the cells (110 μL final volume). At the appropriate time after adding the compounds, the growth factors are added. VEGF is added to one set of plates, while bFGF is added to another set of plates. For the growth factor control curves, the media on wells B4-G6 of plates 1 and 2 are replaced with media containing VEGF or bFGF at the varying concentrations (50-0 ng/mL). The cells are incubated at 37° C. for an additional 72 h.
At the completion of the 72 h incubation period, the medium is removed, and the cells are washed twice with PBS. After the second wash with PBS, the plates are tapped gently to remove excess PBS, and the cells are placed at −70° C. for at least 30 min. The cells are thawed and analyzed using the CyQuant fluorescent dye (Molecular Probes C-7026), following the manufacturer's recommendations. The plates are read on a Victor/Wallac 1420 workstation at 485 nm/530 nm (excitation/emission). Raw data are collected and analyzed using a 4-parameter fit equation in XLFit. IC50 values are then determined.
With `CC(C)(C)c1ccc(N2Cc3cccc(NCc4ccncc4)c3C2=O)cc1` [Example 1, 2-(4-(1,1-Dimethylethyl)phenyl)-7-((4-pyridinylmethyl)amino)-2,3-dihydro-1H-isoindol-1-one] the IC50 was < 500 nM.
With `CC(=O)N1CC(C)(C)c2ccc(N3Cc4cccc(NCc5ccncc5)c4C3=O)cc21` [Example 16, 2-(1-acetyl-3,3-dimethyl-2,3-dihydro-1H-indol-6-yl)-7-[(pyridin-4-ylmethyl)-amino]-2,3-dihydro-isoindol-1-one] the IC50 was < 500 nM.
With `CC1(C)CNc2cc(N3Cc4cccc(NCc5ccncc5)c4C3=O)ccc21` [Example 17] the IC50 was < 500 nM.
`CC1(C)CNCc2cc(N3Cc4cccc(NCc5ccncc5)c4C3=O)ccc21` [Example 20] was tested, and the IC50 was < 500 nM.
For `CC(C)(C)c1ccc(N2Cc3cccc(NCc4c[nH]c5ncccc45)c3C2=O)cc1` [Example 32, 2-(4-tert-butyl-phenyl)-7-[(1H-pyrrolo [2,3-b]pyridin-3-ylmethyl)-amino]-2,3-dihydro-isoindol-1-one], the IC50 was < 500 nM.
`CC1(C)CNCc2cc(N3Cc4cccc(NCc5c[nH]c6ncccc56)c4C3=O)ccc21` [Example 35] was tested, and the IC50 was < 500 nM.
`CC(C)(C)c1cc(N2Cc3cccc(NCc4ccncc4)c3C2=O)[nH]n1` [Example 46, 2-(5-tert-butyl-2H-pyrazol-3-yl)-7-[(pyridin-4-ylmethyl)-amino]-2,3-dihydro-isoindol-1-one] was tested, and the IC50 was < 500 nM.
In the case of `CC1(C)CNCc2cc(N3Cc4cccc(NCc5ccc6ncccc6c5)c4C3=O)ccc21` [Example 64, 2-(4,4-Dimethyl-1,2,3,4-tetrahydro-isoquinolin-7-yl)-7-[(quinolin-6-ylmethyl)-amino]-2,3-dihydro-isoindol-1-one], the IC50 is reported as < 500 nM.
`CC(C)(C)c1ccc(N2Cc3ccnc(NCc4ccncc4)c3C2=O)cc1` [Example 80, 2-(4-tert-butyl-phenyl)-4-[(pyridin-4-ylmethyl)-amino]-1,2-dihydro-pyrrolo[3,4-c]pyridin-3-one] was tested, and the IC50 was < 500 nM.
With `CC(C)(C)c1ccc(N2Cc3ccnc(NCc4ccnc(N)c4)c3C2=O)cc1` [Example 83, 4-[(2-amino-pyridin-4-ylmethyl)-amino]-2-(4-tert-butyl-phenyl)-1,2-dihydro-pyrrolo[3,4-c]pyridin-3-one] the IC50 was < 500 nM.
